Assay results: ChEMBL document CHEMBL1156004, “Pyrazolopyrimidines and pyrazolotriazines with potent activity against herpesviruses” (Bioorg Med Chem Lett, 2009)

Assays:
[1] = Antiviral activity against HSV1 SC16 infected in african green monkey Vero cells by hybrid capture method; format: functional, cell-based, Herpes simplex virus (type 1 / strain SC16); details: Human alphaherpesvirus 1, Vero
[2] = Cytotoxicity against african green monkey Vero cells; format: cell-based; details: chlorocebus sabaeus
[3] = Half life in Sprague-Dawley rat at 1 mg/kg, iv and po; format: ADME, organism-based; parameters: dose 1 mg/kg, route oral; details: in vivo
[4] = test system: Rattus norvegicus; assay: Volume of distribution in Sprague-Dawley rat at 1 mg/kg, iv and po; format: ADME, organism-based; parameters: dose 1 mg/kg, route oral; details: in vivo
[5] = Oral bioavailability in Sprague-Dawley rat at 1 mg/kg; format: ADME, organism-based; details: in vivo
[6] = Cmax in Sprague-Dawley rat at 1 mg/kg, iv and po after 30 mins; format: ADME, organism-based; parameters: dose 1 mg/kg, route oral; details: in vivo

Structure (SMILES)	IC50 [1]	CC50 [2]	half-life [3]	Vd [4]	bioavailability [5]	Cmax [6]
Fc1ccc(-c2nn3c(NC4CCCC4)cccc3c2-c2ccnc(NC3CCCC3)n2)cc1	260 nM	> 160000 nM				
Fc1ccc(-c2nn3c(NC4CCCC4)cc(NC4CCCC4)cc3c2-c2ccnc(NC3CCCC3)n2)cc1	240 nM	> 40000 nM				
COc1ccc(-c2nn3c(NC4CCCC4)cccc3c2-c2ccnc(NC3CCCC3)n2)cc1	220 nM	> 100000 nM				
c1cc(NC2CCCC2)n2nc(-c3ccc(OCC4CC4)cc3)c(-c3ccnc(NC4CCCC4)n3)c2c1	170 nM	> 40000 nM				
Fc1ccc(-c2nn3c(NC4CCCC4)nccc3c2-c2ccnc(NC3CCCC3)n2)cc1	170 nM	> 40000 nM	2.5 h	1.2 L/kg	24%	300 nM
Clc1cccc(-c2nn3c(N4CCOCC4)nccc3c2-c2ccnc(NC3CCCC3)n2)c1	200 nM	> 40000 nM				
c1ccc(-c2nn3c(NC4CCCC4)ccnc3c2-c2ccnc(NC3CCCC3)c2)cc1	300 nM	14000 nM				
Fc1ccc(-c2nn3c(NC4CCCC4)ccnc3c2-c2ccnc(NC3CCCC3)c2)cc1	1200 nM	16000 nM				
c1cc(-c2c(-c3ccc(OCC4CC4)cc3)nn3c(NC4CCCC4)nccc23)nc(NC2CCCC2)n1	690 nM	> 40000 nM				
CCCCOc1ccc(-c2nn3c(NC4CCCC4)nccc3c2-c2ccnc(NC3CCCC3)n2)cc1	470 nM	> 40000 nM				
c1ccc(-c2nn3c(NC4CCCC4)ncnc3c2-c2ccnc(NC3CCCC3)n2)cc1	6400 nM	> 40000 nM				
COc1ccc(-c2nn3c(NC4CCCC4)nccc3c2-c2ccnc(NC3CCCC3)n2)cc1	280 nM	> 40000 nM				
CC(C)(C)Nc1nccc2c(-c3ccnc(NC4CCCC4)n3)c(-c3ccc(F)cc3)nn12	6610 nM	> 40000 nM				
COCCNc1nccc2c(-c3ccnc(NC4CCCC4)n3)c(-c3cccc(Cl)c3)nn12	300 nM	> 40000 nM				
Fc1ccc(-c2nn3c(N4CCCC4)nccc3c2-c2ccnc(NC3CCCC3)n2)cc1	1900 nM	> 40000 nM				
CC(C)COc1ccc(-c2nn3c(NC4CCCC4)nccc3c2-c2ccnc(NC3CCCC3)n2)cc1	610 nM	> 40000 nM				
COc1ccc(-c2nn3c(NC4CCCC4)ccnc3c2-c2ccnc(NC3CCCC3)c2)cc1	600 nM	10000 nM				
Oc1ccc(-c2nn3c(NC4CCCC4)nccc3c2-c2ccnc(NC3CCCC3)n2)cc1	4000 nM	27000 nM				
COCCOc1ccc(-c2nn3c(NC4CCCC4)nccc3c2-c2ccnc(NC3CCCC3)n2)cc1	1120 nM	> 40000 nM				
Clc1cccc(-c2nn3c(NC4CCCC4)nccc3c2-c2ccnc(NC3CCCC3)n2)c1	460 nM	> 40000 nM				
Fc1ccc(-c2nn3c(N4CCCCC4)nccc3c2-c2ccnc(NC3CCCC3)n2)cc1	980 nM	> 40000 nM				
COc1ccc(-c2nn3c(NC4CCCC4)ccnc3c2-c2ccnc(NC3CCCC3)n2)cc1	2400 nM	32000 nM				
c1ccc(-c2nn3c(NC4CCCC4)nc(NC4CCCC4)nc3c2-c2ccnc(NC3CCCC3)c2)cc1	120 nM	> 40000 nM				
CCCOc1ccc(-c2nn3c(NC4CCCC4)nccc3c2-c2ccnc(NC3CCCC3)n2)cc1	540 nM	> 20000 nM				
c1ccc(-c2nn3c(NC4CCCC4)cccc3c2-c2ccnc(NC3CCCC3)n2)cc1	620 nM	> 40000 nM				
Nc1nc2c(ncn2COCCO)c(=O)[nH]1 [ACYCLOVIR]	390 nM	> 200000 nM				
